“And” between values parts separate entries of the source, which are not always exact repeats. Equal values may be shown once.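 In this assay, cells in 96-well plates receive the compound at five concentrations for 48 hours. Endpoints are linearly interpolated between the surrounding concentrations. Here, GI50 denotes the concentration required for 50% inhibition of growth. TGI: total growth inhibition.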

This note sets out measurements from PubChem BioAssay (NCI).

Experiment in all cases: NCI tumour cell line growth inhibition, 48 h
Experiment [1] relates to HCC-2998 colon.
The test system of experiment [2] is ACHN renal.
Experiment [3] has as its system DMS 114 small cell lung.
The subject of experiment [4] is A549 NSCLC.
The test system of experiment [5] is SNB-78 CNS.
Experiment [6] relates to NCI-H226 lung.
Experiment [7] deals with SW-620 colon.
Experiment [8] concerns SNB-75 CNS.
For experiment [9], the system named is DU-145 prostate.
In experiment [10] the test system is MDA-N.
Experiment [11] concerns HS 578T breast.

Turning to `c1ccc(C2[C@@H]3CCCc4ccccc4C3=NN2c2ccccc2)cc1` (stereo partly specified), the TGI in [1], in experiment [2], in experiment [3], in [4], in experiment [5] and in experiment [6] was above 100 µM throughout. This compound also yielded a TGI in experiment [7] above 100 µM.
As to `C[N+](C)(C)CC1CCCC/C1=N\O` (stereo unspecified), the TGI in experiment [1], in experiment [2], in experiment [3], in experiment [4], in [5] and in experiment [7] was above 100 µM throughout.
Consider `COC(=O)C1C2CC3C(OC(=O)C31)C2OC(=O)[C@](OC)(c1ccccc1)C(F)(F)F` (stereo partly specified), for which the TGI in experiment [1], in experiment [8], in experiment [2], in experiment [3], in [4] and in experiment [5] was above 100 µM in each case. Besides, the TGI in [6] and in experiment [7] was above 100 µM in each case.
With `CC(=O)C1(O)Cc2c(O)c3c(c(O)c2C(OC2CC(N)C(O)C(C)O2)C1)C(=O)c1ccccc1C3=O` (stereo unspecified), the GI50 is 0.0198 µM in experiment [1]; below 0.0104 µM in experiment [9]; 0.0293 µM in experiment [8]; 0.026 µM in experiment [10]; below 0.0113 µM in [6]; below 0.0114 µM in experiment [7]. Further, the TGI was 0.257 µM and 0.0758 µM in experiment [1]; 0.438 µM and 0.0587 µM in experiment [9]; 0.594 µM and 0.103 µM in experiment [8]; 0.097 µM and 0.0268 µM in [2]; 0.404 µM and 0.211 µM in experiment [10]; 0.338 µM in [4]. The TGI in [5] was 0.592 µM; in experiment [6], 0.139 µM and 0.0538 µM; in [11] it was 0.391 µM; in experiment [7] it was 0.597 µM and 0.262 µM.
In the case of `CC(=O)CC(=O)/C=C/c1cccs1`, the TGI in experiment [2], in experiment [3], in [4], in experiment [6] and in [7] was above 100 µM throughout.
Turning to `CC(C)(C)OC(=O)N1N=NC2C3OC(CC3=O)C21` (stereo unspecified), the TGI in [1], in experiment [8], in experiment [2], in experiment [3], in experiment [4] and in experiment [5] was above 100 µM in each case. Further, the TGI in [6] is 8.96 µM; in experiment [7], above 100 µM.
On to `NC(=O)N/N=C(/c1nc2ccc([N+](=O)[O-])cc2[nH]c1=O)C(O)c1ccco1` (stereo unspecified), for which the TGI was 85.3 µM in experiment [1]; above 100 µM in experiment [8]; above 100 µM in experiment [2]; above 100 µM in experiment [3]; above 100 µM in [4]; above 100 µM in experiment [5]. For the same compound, the TGI in experiment [6] and in experiment [7] was above 100 µM each time.
For the compound `O=C1NC2(C=Cc3c(ccc4ccccc34)O2)Oc2ccccc21` (stereo unspecified), the TGI in experiment [8] was 61.4 µM; in experiment [2], 77.7 µM; in [3] it was 51 µM; in experiment [4] it was above 100 µM; in experiment [5], 94.1 µM; in experiment [6] it was 74.1 µM. Besides, the TGI in experiment [7] is above 100 µM.
As for `CC(C)N(C(C)C)P(OCCC#N)OC1CC(n2cnc3c(=O)[nH]cnc32)OC1COC(=O)NCCCCCCNC(=O)OC(C)(C)c1ccc(-c2ccccc2)cc1` (stereo unspecified), the TGI in [1] was 65.1 µM; in [8] it was 53.7 µM; in experiment [2], above 100 µM; in experiment [3], 41.6 µM; in experiment [4], above 100 µM; in experiment [5], above 100 µM. Also, the TGI in experiment [6] was 55.2 µM; in experiment [7], above 100 µM.
Turning to `CCN(CC)CCNc1ccc2ncn3c4cc(=O)ccc4c(O)c1c23`, the TGI is 15.6 µM in [1]; 21.6 µM in experiment [8]; 10.6 µM in experiment [2]; 18.1 µM in experiment [3]; 12.1 µM in experiment [4]; 25.4 µM in [5]. The TGI turned out to be 11.4 µM in experiment [6] and 21 µM in experiment [7].
Take `COc1ccc(C2C(Cl)C(=O)N2NC(=O)Cc2ccccc2)cc1OC` (stereo unspecified): the TGI in [1], in experiment [8], in [2], in [3], in [4] and in experiment [5] was above 100 µM each time. Further, the TGI in experiment [6] and in experiment [7] was above 100 µM in each case.
Turning to `CCOC(=O)NC(=O)c1c[nH]c(=O)[nH]c1=O`, the TGI in experiment [1], in experiment [8], in [2], in [3], in [4] and in [5] was above 100 µM throughout. Also, the TGI in [6] and in experiment [7] was above 100 µM in each case.
Take `COC[C@@H](Cc1ccc(OC)c(OC)c1)[C@@H](COC)Cc1ccc(OC)c(OC)c1`: the TGI in experiment [1], in [8], in experiment [2], in experiment [3], in experiment [4] and in experiment [5] was above 100 µM each time. Besides, the TGI in experiment [7] is above 100 µM.
Take `N#C/C(=C\c1ccccc1Br)C(=O)c1ccccc1`: the TGI was above 100 µM in experiment [1]; above 89.6 µM in [2]; above 100 µM in [3]; above 70 µM in experiment [4]; above 100 µM in [5]; above 78.2 µM in experiment [6]. In experiment [7], this compound gave a TGI above 45.7 µM.
As to `O=C1c2cc([N+](=O)[O-])sc2C(=O)c2ccsc21`, the TGI in experiment [1] was 1.7 µM; in experiment [9], 0.674 µM; in [8], 2.71 µM; in experiment [2], 0.768 µM; in [10], 0.378 µM; in experiment [4], 3.51 µM. Besides, the results for the TGI in experiment [6], in experiment [11] and in experiment [7] were 3.09 µM, 1.85 µM and 0.779 µM, respectively.
Regarding `O=C(Oc1cccc(Cl)c1)c1cc2cc(CCl)ccc2oc1=O`, the TGI was 34.4 µM in experiment [1]; 62.9 µM in [9]; above 100 µM in [8]; 38.5 µM in experiment [2]; above 100 µM in [10]; above 100 µM in experiment [4]. The TGI in experiment [6], in [11] and in experiment [7] was above 100 µM throughout.
On to `O=C1C[C@H](c2ccc(O)c(O)c2)Oc2cc(O)cc(O)c21`, for which the TGI in experiment [1], in [8], in experiment [2], in [3], in experiment [4] and in experiment [5] was above 100 µM each time. The TGI in experiment [6] and in experiment [7] was above 100 µM in each case.
Turning to `C[N+](C)([O-])CCCNc1ccnc2cccc([N+](=O)[O-])c12`, the TGI in [1] was above 100 µM; in experiment [9], 44.1 µM; in experiment [8] it was above 100 µM; in experiment [2], above 100 µM; in experiment [10], above 100 µM; in experiment [4], above 100 µM. In addition, the TGI in experiment [6] is above 100 µM; in experiment [11] it was 77.6 µM; in [7] it was above 100 µM.
